# Experimental data published in patent US11478474B2, “2-(3′-(hydroxymethyl)-1-methyl-5-((5-(2-methyl-4-(oxetan-3-yl)piperazin-1-yl)pyridin-2-yl)amino)-6-oxo-1,6-dihydro-[3,4′-bipyridin]-2′-yl)-7,7-dimethyl-7,8-dihydro-2H-cyclopenta[4,5]pyrrolo[1,2-a]pyrazin-1(6H)-one as a BTK inhibitor” (HUTCHISON MEDIPHARMA LIMITED, priority 2020, dated 2022).
# Legend:
# BTK recombinant protein = BTK recombinant protein (Homo sapiens (Human), UniProt Q06187); assay: Determination of biochemical BTK (Z'-LYTE kinase assay)
# Outline: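 Human BTK recombinant kinase (3.32 nM final) was preincubated with compound for 30 min at 4 °C. Reaction ran 1 h at room temperature with Tyr01 FRET peptide (2 μM) and ATP (32 μM); development protease then added. Coumarin 445 nm/fluorescein 520 nm emission ratio (400 nm excitation) gave inhibition across 8 concentrations, 3000–1.37 nM.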
# [1] = target: phosphorylated BTK in Ramos cells (Homo sapiens (Human), UniProt Q06187); assay: Determination of phosphorylated BTK in Ramos cells (BTK phospho-Y223 HTRF); type: cell-based; conditions: anti-human IgM + hydrogen peroxide stimulation
# Outline: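 Ramos cells starved 2 h in 1% FBS, then treated 1 h with compound (0.00018–3.0 μM, 0.3% DMSO). They were then stimulated 10 min at 37° C. with anti-human IgM (10 μg/mL) plus H2O2 (3.3 mM). Lysates read by BTK phospho-Y223 HTRF (665/615 nm ratio); IC50 fitted from inhibition normalized to stimulated and unstimulated controls.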
# Sequence of phosphorylated BTK in Ramos cells (Q06187 whole entry): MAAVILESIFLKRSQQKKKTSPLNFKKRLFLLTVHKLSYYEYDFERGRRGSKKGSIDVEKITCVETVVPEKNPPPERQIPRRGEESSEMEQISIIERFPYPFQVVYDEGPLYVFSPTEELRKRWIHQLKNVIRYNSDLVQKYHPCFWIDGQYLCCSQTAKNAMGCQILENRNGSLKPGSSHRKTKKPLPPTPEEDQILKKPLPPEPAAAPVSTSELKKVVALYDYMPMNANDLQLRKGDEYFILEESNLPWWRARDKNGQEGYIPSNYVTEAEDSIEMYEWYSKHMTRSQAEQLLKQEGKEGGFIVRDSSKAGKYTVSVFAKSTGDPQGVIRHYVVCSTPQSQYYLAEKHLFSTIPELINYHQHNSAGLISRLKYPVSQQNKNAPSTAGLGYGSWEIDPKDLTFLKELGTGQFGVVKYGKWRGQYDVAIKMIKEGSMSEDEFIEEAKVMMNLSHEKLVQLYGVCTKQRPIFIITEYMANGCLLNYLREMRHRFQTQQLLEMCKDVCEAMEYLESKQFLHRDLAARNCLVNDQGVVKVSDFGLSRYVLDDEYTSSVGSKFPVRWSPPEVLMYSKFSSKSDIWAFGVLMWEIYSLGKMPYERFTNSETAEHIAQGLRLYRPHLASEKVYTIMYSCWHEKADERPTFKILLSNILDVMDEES
# Sequence of BTK recombinant protein (Q06187 whole entry): as above
SMILES,IC50 (BTK recombinant protein),IC50 [1]
C[C@H]1CN(C2COC2)CCN1c1ccc(Nc2cc(-c3ccnc(-n4ccn5c(cc6ccccc65)c4=O)c3CO)nn(C)c2=O)nc1 [Compound 76],123 nM,60 nM
Cn1cc(-c2ccnc(-n3ccn4c5c(cc4c3=O)CC(C)(C)C5)c2CO)cc(Nc2ccccc2)c1=O [Compound 77],441 nM,132 nM
C[C@@H]1CN(C2COC2)CCN1c1ccc(Nc2cc(-c3ccnc(-n4ccn5c6c(cc5c4=O)CC(C)(C)C6)c3CO)cn(C)c2=O)nc1 [Compound 80],5 nM,2 nM
Cn1ccc(Nc2cc(-c3ccnc(-n4ccn5c6c(cc5c4=O)CC(C)(C)C6)c3CO)cn(C)c2=O)n1 [Compound 81],8 nM,2 nM
Cc1cc(Nc2cc(-c3ccnc(-n4ccn5c6c(cc5c4=O)CC(C)(C)C6)c3CO)cn(C)c2=O)nn1C [Compound 82],6 nM,2 nM
Cn1cc(-c2ccnc(-n3ccn4c5c(cc4c3=O)CC(C)(C)C5)c2CO)cc(Nc2ccncn2)c1=O [Compound 83],13 nM,13 nM
Cn1cc(-c2ccnc(-n3ccn4c5c(cc4c3=O)CC(C)(C)C5)c2CO)cc(Nc2cccnn2)c1=O [Compound 84],9 nM,11 nM
Cc1ccc(Nc2cc(-c3ccnc(-n4ccn5c6c(cc5c4=O)CC(C)(C)C6)c3CO)cn(C)c2=O)nn1 [Compound 85],11 nM,2 nM
Cn1cc(Nc2cc(-c3ccnc(-n4ccn5c6c(cc5c4=O)CC(C)(C)C6)c3CO)cn(C)c2=O)cn1 [Compound 86],16 nM,6 nM
Cc1cc(Nc2cc(-c3ccnc(-n4ccn5c6c(cc5c4=O)CC(C)(C)C6)c3CO)cn(C)c2=O)no1 [Compound 87],11 nM,3 nM
Cn1cc(-c2ccnc(-n3ccn4c5c(cc4c3=O)CC(C)(C)C5)c2CO)cc(NC(=O)C2CC2)c1=O [Compound 89],11 nM,8 nM
Cn1cc(-c2ccnc(-n3ccn4c5c(cc4c3=O)CC(C)(C)C5)c2CO)cc(Nc2ccc(F)cn2)c1=O [Compound 90],26 nM,7 nM
CC[C@H]1CN(C2COC2)CCN1c1ccc(Nc2cc(-c3ccnc(-n4ccn5c6c(cc5c4=O)CC(C)(C)C6)c3CO)cn(C)c2=O)nc1 [Compound 91],17 nM,4 nM
C[C@H]1CN(C2COC2)CCN1c1ccc(Nc2cc(-c3ccnc(-n4ccn5c6c(cc5c4=O)CCCCC6)c3CO)cn(C)c2=O)nc1 [Compound 92],10 nM,7 nM
C[C@H]1CN(C2COC2)CCN1c1ccc(Nc2cc(-c3ccnc(-n4ccn5c6c(cc5c4=O)COCC6)c3CO)cn(C)c2=O)nc1 [Compound 93],49 nM,46 nM
[2H]C1(N2CCN(c3ccc(Nc4cc(-c5ccnc(-n6ccn7c8c(cc7c6=O)CC(C)(C)C8)c5CO)cn(C)c4=O)nc3)[C@@H](C)C2)COC1 [Compound 94],7 nM,2 nM
Cn1cc(-c2ccnc(-n3ccn4c5c(cc4c3=O)CC(C)(C)C5)c2CO)cc(Nc2ccc(N3CCN(C4COC4)CC3(C)C)cn2)c1=O [Compound 95],10 nM,3 nM
C[C@H]1CNCCN1c1ccc(Nc2cc(-c3ccnc(-n4ccn5c6c(cc5c4=O)CC(C)(C)C6)c3CO)cn(C)c2=O)nc1 [Compound 96],7 nM,5 nM
[2H]C([2H])([2H])n1cc(-c2ccnc(-n3ccn4c5c(cc4c3=O)CC(C)(C)C5)c2CO)cc(Nc2ccc(N3CCN(C4COC4)C[C@@H]3C)cn2)c1=O [Compound 97],9 nM,3 nM
Cn1nc(Nc2cc(-c3ccnc(-n4ccn5c6c(cc5c4=O)CC(C)(C)C6)c3CO)cn(C)c2=O)cc1C(=O)N1CCOCC1 [Compound 99],6 nM,4 nM
[2H]C(O)c1c(-c2cc(Nc3ccc(N4CCN(C5COC5)C[C@@H]4C)cn3)c(=O)n(C)c2)ccnc1-n1ccn2c3c(cc2c1=O)CC(C)(C)C3 (some centres unmarked) [Compound 100],5 nM,2 nM
C[C@H]1CN(CC#N)CCN1c1ccc(Nc2cc(-c3ccnc(-n4ccn5c6c(cc5c4=O)CC(C)(C)C6)c3CO)cn(C)c2=O)nc1 [Compound 102],11 nM,2 nM
Cc1nn(-c2nccc(-c3cc(Nc4ccc(N5CCN(C6COC6)C[C@@H]5C)cn4)c(=O)n(C)c3)c2CO)c(=O)c2cc3c(n12)CC(C)(C)C3 [Compound 104],10 nM,6 nM

SMILES,IC50 (BTK recombinant protein),IC50 [1]
C[C@H]1CN(C2COC2)CCN1c1ccc(Nc2cc(-c3ccnc(-n4ccn5c6c(cc5c4=O)CC(C)(C)C6)c3CF)cn(C)c2=O)nc1 [Compound 105],67 nM,11 nM
CN(c1ccc(Nc2cc(-c3ccnc(-n4ncn5c6c(cc5c4=O)CC(C)(C)C6)c3CO)cn(C)c2=O)nc1)C1COC1 [Compound 106],12 nM,1 nM
COCCN1CCn2nc(Nc3cc(-c4ccnc(-n5ncn6c7c(cc6c5=O)CC(C)(C)C7)c4CO)cn(C)c3=O)cc2C1 [Compound 107],12 nM,2 nM
C[C@H]1CN(C#N)CCN1c1ccc(Nc2cc(-c3ccnc(-n4ccn5c6c(cc5c4=O)CC(C)(C)C6)c3CO)cn(C)c2=O)nc1 [Compound 108],7 nM,1 nM
Cn1cc(-c2ccnc(-n3ccn4c5c(cc4c3=O)CC(C)(C)C5)c2CO)cc(Nc2ccc(N3CCC4C3CCN4C3COC3)cn2)c1=O (centres unmarked) [Compound 109],20 nM,4 nM
COCCN1CCn2nc(Nc3cc(-c4ccnc(-n5ccn6c7c(cc6c5=O)CC(C)(C)C7)c4CO)cn(C)c3=O)cc2C1C (centres unmarked) [Compound 111],8 nM,2 nM
CC1c2cc(Nc3cc(-c4ccnc(-n5ccn6c7c(cc6c5=O)CC(C)(C)C7)c4CO)cn(C)c3=O)nn2CCN1C1COC1 (centres unmarked) [Compound 112],5 nM,3 nM
COCC(C)N1CCn2nc(Nc3cc(-c4ccnc(-n5ccn6c7c(cc6c5=O)CC(C)(C)C7)c4CO)cn(C)c3=O)cc2C1 (centres unmarked) [Compound 115],12 nM,10 nM
COCCN1CCn2nc(Nc3cc(-c4ccnc(-n5ccn6c7c(cc6c5=O)CC(C)(C)C7)c4CO)cn(C)c3=O)cc2[C@@H]1C [Compound 116],10 nM,11 nM
COCCN1CCn2nc(Nc3cc(-c4ccnc(-n5ccn6c7c(cc6c5=O)CC(C)(C)C7)c4CO)cn(C)c3=O)cc2[C@H]1C [Compound 117],4 nM,7 nM
CC1c2cc(Nc3cc(-c4ccnc(-n5ncn6c7c(cc6c5=O)CC(C)(C)C7)c4CO)cn(C)c3=O)nn2CCN1C1COC1 (centres unmarked) [Compound 118],5 nM,1 nM
"COCCN1CCn2nc(Nc3cc(-c4ccnc(-n5ncn6c7c(cc6c5=O)CC(C)(C)C7)c4CO)cn(C)c3=O)cc2[C@@H]1C [Compound 119, 2-(3′-(hydroxymethyl)-5-((5-(2-methoxyethyl)-4-methyl-4,5,6,7-tetrahydropyrazolo[1,5-a]pyrazin-2-yl) amido)-1-methyl-6-oxo-1,6-dihydro-[3,4′-bispyridin]-2′-yl)-7,7-dimethyl-7,8-dihydro-2H-cyclopenta[4,5]pyrrolo[1,2-d][1,2,4]triazin-1(6H)-one optically Pure]",7 nM,2 nM
Cn1cc(-c2ccnc(-n3ncn4c5c(cc4c3=O)CC(C)(C)C5)c2CO)cc(Nc2cc3n(n2)CCN(C2COC2)C3)c1=O [Compound 122],< 1 nM,7 nM
C[C@H]1CN(C2COC2)C(=O)N1c1ccc(Nc2cc(-c3ccnc(-n4ccn5c6c(cc5c4=O)CC(C)(C)C6)c3CO)cn(C)c2=O)nc1 [Compound 123],13 nM,9 nM
Cn1cc(-c2ccnc(-n3ccn4c5c(cc4c3=O)CC(C)(C)C5)c2CO)cc(Nc2cc3n(n2)CCN(C2COC2)C3)c1=O [Compound 124],6 nM,7 nM
Cc1ccc(Nc2cc(-c3ccnc(-n4ccn5c6c(cc5c4=O)CC(C)(C)C6)c3CO)cn(C)c2=O)nc1 [Compound 125],33 nM,21 nM
COc1ccc(Nc2cc(-c3ccnc(-n4ccn5c6c(cc5c4=O)CC(C)(C)C6)c3CO)cn(C)c2=O)nc1 [Compound 126],26 nM,20 nM
C[C@@H](CNC1COC1)Nc1ccc(Nc2cc(-c3ccnc(-n4ccn5c6c(cc5c4=O)CC(C)(C)C6)c3CO)cn(C)c2=O)nc1 [Compound 127],10 nM,18 nM
Cc1ccc(Nc2cc(-c3ccnc(-n4ncn5c6c(cc5c4=O)CC(C)(C)C6)c3CO)cn(C)c2=O)nn1 [Compound 132],51 nM,28 nM
COc1ccc(Nc2cc(-c3ccnc(-n4ncn5c6c(cc5c4=O)CC(C)(C)C6)c3CO)cn(C)c2=O)nc1 [Compound 133],33 nM,13 nM
Cn1cc(-c2ccnc(-n3ccn4c5c(cc4c3=O)CCC5)c2CO)cc(Nc2cc3n(n2)CCN(C2COC2)C3)c1=O [Compound 134],59 nM,54 nM
"Cn1cc(-c2ccnc(-n3ccn4c5c(cc4c3=O)CC(C)(C)C5)c2CO)cc(Nc2cc3n(n2)CCN(C#N)C3)c1=O [Compound 135, 2-((2′-(7,7-dimethyl-1-oxo-1,6,7,8-tetrahydro-2H-cyclopenta[4,5]pyrrolo[1,2-a]pyrazin-2-yl)-3′-(hydroxymethyl)-1-methyl-6-oxo-1,6-dihydro-[3,4′-bispyridin]-5-yl)amino)-6,7-dihydropyrazolo[1,5-a]pyrazin-5(4H)-nitrile]",8 nM,5 nM
C[C@H]1c2cc(Nc3cc(-c4ccnc(-n5ccn6c7c(cc6c5=O)CC(C)(C)C7)c4CO)cn(C)c3=O)nn2CCN1C1COC1 [Compound 136],4 nM,5 nM
